Structures can show the parent of a compound that is named as a salt. Where two headings read alike, the source gives them in different places.
Legend:
CYP3A4 = CYP3A4 (Homo sapiens, UniProt P08684); experiment: biochemical
human CYP2C19 [1] = biological target: T1, human CYP2C19 (Homo sapiens, UniProt P33261); experiment: biochemical
human CYP2C9 [2] = biological target: T2, human CYP2C9 (Homo sapiens, UniProt P11712); experiment: biochemical
human CYP2D6 = human CYP2D6 (Homo sapiens, UniProt P10635); experiment: biochemical
human CYP2D6, sequence (P10635 whole entry): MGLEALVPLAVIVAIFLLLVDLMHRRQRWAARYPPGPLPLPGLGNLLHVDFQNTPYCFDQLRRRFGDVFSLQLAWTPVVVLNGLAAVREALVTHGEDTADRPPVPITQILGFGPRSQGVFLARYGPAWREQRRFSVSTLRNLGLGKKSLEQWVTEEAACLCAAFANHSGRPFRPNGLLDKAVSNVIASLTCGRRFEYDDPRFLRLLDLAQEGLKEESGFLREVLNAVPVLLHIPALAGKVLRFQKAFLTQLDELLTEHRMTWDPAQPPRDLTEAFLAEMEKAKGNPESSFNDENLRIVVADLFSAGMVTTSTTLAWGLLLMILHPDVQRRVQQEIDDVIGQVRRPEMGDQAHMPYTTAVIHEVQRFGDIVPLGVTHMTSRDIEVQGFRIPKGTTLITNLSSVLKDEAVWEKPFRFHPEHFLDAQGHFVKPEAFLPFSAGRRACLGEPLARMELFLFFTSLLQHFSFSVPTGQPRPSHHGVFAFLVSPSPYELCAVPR

human CYP1A2 [3] = biological target: T3, human CYP1A2 (Homo sapiens, UniProt P05177); experiment: biochemical
T3 sequence (P05177 1-516): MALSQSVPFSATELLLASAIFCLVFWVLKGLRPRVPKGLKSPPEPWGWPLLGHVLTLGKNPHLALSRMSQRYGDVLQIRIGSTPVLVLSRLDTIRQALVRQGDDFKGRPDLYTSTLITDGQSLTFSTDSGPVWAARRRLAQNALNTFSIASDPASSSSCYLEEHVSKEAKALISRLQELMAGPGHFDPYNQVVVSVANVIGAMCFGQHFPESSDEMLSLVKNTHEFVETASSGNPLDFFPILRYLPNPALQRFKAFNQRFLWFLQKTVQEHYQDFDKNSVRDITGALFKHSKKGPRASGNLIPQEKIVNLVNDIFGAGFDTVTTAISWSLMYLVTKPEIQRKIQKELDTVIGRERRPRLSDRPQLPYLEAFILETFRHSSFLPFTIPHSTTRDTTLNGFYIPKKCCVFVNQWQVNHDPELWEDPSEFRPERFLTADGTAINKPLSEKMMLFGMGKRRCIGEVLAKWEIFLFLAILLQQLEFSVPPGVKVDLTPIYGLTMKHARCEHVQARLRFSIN

human CYP2C19 [4] = biological target: T1, human CYP2C19
human CYP1A2 [5] = biological target: T3, human CYP1A2
human CYP2C9 [6] = biological target: T2, human CYP2C9
[7] = CYP3A4 AC50 (half-maximal activity concentration)
[8] = CYP2C19 AC50 (half-maximal activity concentration)
[9] = CYP2C9 AC50 (half-maximal activity concentration)
[10] = CYP2D6 AC50 (half-maximal activity concentration)
[11] = CYP1A2 AC50 (half-maximal activity concentration)

T1 sequence (P33261 whole entry): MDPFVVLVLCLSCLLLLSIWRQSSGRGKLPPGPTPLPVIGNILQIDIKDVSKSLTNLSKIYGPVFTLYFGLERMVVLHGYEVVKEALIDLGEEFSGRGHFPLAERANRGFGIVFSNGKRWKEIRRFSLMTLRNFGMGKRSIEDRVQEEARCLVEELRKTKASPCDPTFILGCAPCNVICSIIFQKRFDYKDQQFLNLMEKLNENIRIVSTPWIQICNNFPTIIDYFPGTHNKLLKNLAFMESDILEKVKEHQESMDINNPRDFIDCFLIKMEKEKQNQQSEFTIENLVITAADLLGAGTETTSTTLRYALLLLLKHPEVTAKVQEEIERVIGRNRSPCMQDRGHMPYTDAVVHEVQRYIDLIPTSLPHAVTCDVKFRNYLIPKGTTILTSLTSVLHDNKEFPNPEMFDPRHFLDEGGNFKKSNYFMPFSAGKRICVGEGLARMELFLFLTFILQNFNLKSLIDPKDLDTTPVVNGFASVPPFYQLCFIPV
CYP3A4, sequence (P08684 whole entry): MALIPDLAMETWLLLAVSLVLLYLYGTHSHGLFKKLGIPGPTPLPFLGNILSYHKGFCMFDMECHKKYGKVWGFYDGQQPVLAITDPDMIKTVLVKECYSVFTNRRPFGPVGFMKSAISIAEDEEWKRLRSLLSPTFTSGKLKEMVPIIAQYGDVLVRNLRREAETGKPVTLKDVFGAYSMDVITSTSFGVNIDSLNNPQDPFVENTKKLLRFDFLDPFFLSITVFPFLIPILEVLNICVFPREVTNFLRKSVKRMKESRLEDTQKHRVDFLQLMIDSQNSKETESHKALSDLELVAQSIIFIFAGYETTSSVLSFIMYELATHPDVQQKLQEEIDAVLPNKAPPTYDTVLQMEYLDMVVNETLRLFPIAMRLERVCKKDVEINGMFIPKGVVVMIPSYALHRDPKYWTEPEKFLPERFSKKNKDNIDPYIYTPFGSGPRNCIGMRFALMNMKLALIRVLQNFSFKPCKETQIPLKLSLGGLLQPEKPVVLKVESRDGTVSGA
T2 sequence (P11712 whole entry): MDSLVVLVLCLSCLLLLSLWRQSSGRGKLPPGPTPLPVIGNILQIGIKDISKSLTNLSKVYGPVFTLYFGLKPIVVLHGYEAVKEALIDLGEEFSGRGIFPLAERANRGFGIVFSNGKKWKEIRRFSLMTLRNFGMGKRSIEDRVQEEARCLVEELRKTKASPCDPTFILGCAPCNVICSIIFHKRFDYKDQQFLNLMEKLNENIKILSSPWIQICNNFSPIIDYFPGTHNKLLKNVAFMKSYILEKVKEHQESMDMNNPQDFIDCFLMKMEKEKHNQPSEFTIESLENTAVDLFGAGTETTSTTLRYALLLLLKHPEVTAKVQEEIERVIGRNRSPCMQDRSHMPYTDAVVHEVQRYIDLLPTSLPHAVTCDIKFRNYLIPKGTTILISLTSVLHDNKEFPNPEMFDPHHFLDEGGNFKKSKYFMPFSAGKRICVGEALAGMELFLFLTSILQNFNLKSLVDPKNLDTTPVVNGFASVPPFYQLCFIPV

| Compound | AC50 (CYP3A4; [7]) [µM] | AC50 (human CYP2C19 [1]; [8]) [µM] | AC50 (human CYP2C9 [2]; [9]) [µM] | AC50 (human CYP2D6; [10]) [µM] | AC50 (human CYP1A2 [3]; [11]) [µM] | also measured |
| --- | --- | --- | --- | --- | --- | --- |
| O=C(C(=O)c1ccccc1)c1ccccc1 [1,2-Diphenylethanedione] | 35.4 | 14.8 | 1.13 | 29.4 | 12.1 | – |
| ClC(Cl)(Cl)c1ccc(C(Cl)(Cl)Cl)cc1 [1,4-Bis(trichloromethyl)benzene] | 45.9 | – | 34.2 | 58.6 | 5.66 | CYP2C19 AC50 (half-maximal activity concentration) (human CYP2C19 [4]): Inconclusive inhibitor |
| Oc1c(Br)cc(Br)cc1Br [2,4,6-Tribromophenol] | 72.8 | – | 38.5 | 68.4 | 51.7 | CYP2C19 AC50 (half-maximal activity concentration) (human CYP2C19 [4]): Inconclusive inhibitor |
| Oc1c(I)cc(I)cc1I [2,4,6-Triiodophenol] | 63.5 | 61.9 | 41.2 | 80.7 | 37.2 | – |
| O=C(O)c1cc(Cl)cc(Cl)c1 [3,5-Dichlorobenzoic acid] | 55.5 | – | 58.9 | 27.8 | 57.8 | CYP2C19 AC50 (half-maximal activity concentration) (human CYP2C19 [4]): Inconclusive inhibitor |
| Cc1ccc(C(=O)c2ccccc2)cc1 [4-Methylbenzophenone] | 16 | 13.3 | 34.3 | 46.2 | 34.3 | – |
| O=C(c1ccccc1)C(O)c1ccccc1 (centres unmarked) [Benzoin] | 22.8 | 15.8 | 2.27 | 36.7 | 22.6 | – |
| c1ccc(CSCc2ccccc2)cc1 [Benzyl sulfide] | 7.5 | 5.94 | 29.8 | 61.9 | 27.3 | – |
| COC(=O)c1cc(Oc2ccc(Cl)cc2Cl)ccc1[N+](=O)[O-] [Bifenox] | 5.23 | 2.45 | 7.1 | 25.3 | 20.4 | – |
| CCCCC(CC)COP(=O)(O)OCC(CC)CCCC (centres unmarked) [Bis(2-ethylhexyl) phosphate] | 37.6 | 40.6 | 16.5 | 56.6 | 82.9 | – |
| O=C1C=CC(=O)N1c1ccc(Cc2ccc(N3C(=O)C=CC3=O)cc2)cc1 [Bismaleimide] | 56.6 | 8.29 | 4.93 | 43.6 | 23.9 | – |
| CCCCCCCC(=O)Oc1c(Br)cc(C#N)cc1Br [Bromoxynil octanoate] | 15.4 | 32.5 | 34.5 | 85.8 | 15 | – |
| C#CC(C)N(C)C(=O)Nc1ccc(Cl)cc1 (centres unmarked) [Buturon] | 9.33 | 8.68 | 22.8 | 55.3 | 5.47 | – |
| CCOP(=O)(Sc1ccccc1)Sc1ccccc1 [Edifenphos] | 8.65 | 8.61 | 29.7 | 42.7 | 13 | – |
| CCOC(=O)c1nc(C(Cl)(Cl)Cl)n(-c2ccc(Cl)cc2Cl)n1 [Fenchlorazole-ethyl] | 3.26 | 7.02 | 3.92 | 13.1 | – | CYP1A2 AC50 (half-maximal activity concentration) (human CYP1A2 [5]): Inactive |
| CCOC(=O)[C@@H](C)Oc1ccc(Oc2nc3ccc(Cl)cc3o2)cc1 [Fenoxaprop-P-ethyl] | 47.6 | 62.1 | 55 | 47.5 | 23.8 | – |
| CC(C)C(O)(c1ccc(OC(F)(F)F)cc1)c1cncnc1 (centres unmarked) [Flurprimidol] | – | – | – | – | – | IC50 (CYP3A4; CYP3A4 IC50 (half-maximal inhibitory concentration)): 0.54 µM; IC50 (human CYP2C19 [1]; CYP2C19 IC50 (half-maximal inhibitory concentration)): 2.67 µM; IC50 (human CYP2D6; CYP2D6 IC50 (half-maximal inhibitory concentration)): 10.3 µM; IC50 (human CYP1A2 [3]; CYP1A2 IC50 (half-maximal inhibitory concentration)): 63.3 µM |
| COC(=O)C(C)Oc1ccc(Oc2ncc(C(F)(F)F)cc2Cl)cc1 (centres unmarked) [Haloxyfop-methyl] | – | – | – | – | – | AC50 (CYP3A4): 27.8 µM; AC50 (human CYP2C19 [1]): 50.9 µM; AC50 (human CYP2C9 [2]): 5.74 µM; AC50 (human CYP2D6): 46.8 µM; AC50 (human CYP1A2 [3]): 46.8 µM |
| O=C(NC1CCN(CCc2c[nH]c3ccccc23)CC1)c1ccccc1 [Indoramin hydrochloride] | 15.6 | – | – | 4.31 | – | CYP1A2 AC50 (half-maximal activity concentration) (human CYP1A2 [5]): Inactive; CYP2C19 AC50 (half-maximal activity concentration) (human CYP2C19 [4]): Inactive; CYP2C9 AC50 (half-maximal activity concentration) (human CYP2C9 [6]): Inactive |
| Cc1cccc(C)c1NC(=O)CN1CCN(CCCC(c2ccc(F)cc2)c2ccc(F)cc2)CC1 [Lidoflazine] | 2.26 | 36.7 | 21.3 | 5.18 | – | CYP1A2 AC50 (half-maximal activity concentration) (human CYP1A2 [5]): Inactive |
| CC[N+](C)(CC)CCOC(=O)C1c2ccccc2Oc2ccccc21 [Methantheline bromide] | 15.6 | – | – | 3.29 | – | CYP1A2 AC50 (half-maximal activity concentration) (human CYP1A2 [5]): Inconclusive inhibitor; CYP2C19 AC50 (half-maximal activity concentration) (human CYP2C19 [4]): Inactive; CYP2C9 AC50 (half-maximal activity concentration) (human CYP2C9 [6]): Inactive |
| COc1ccc(C(=O)c2ccc(C)cc2)c(O)c1 [Mexenone] | 6.22 | 5.89 | 14.7 | 56.1 | 16.1 | – |
| O=C1NC2CCCCN2C12CCN(CCCN1c3ccccc3CCc3ccc(Cl)cc31)CC2 (centres unmarked) [Mosapramine] | 6.79 | – | – | 6.53 | – | CYP1A2 AC50 (half-maximal activity concentration) (human CYP1A2 [5]): Inactive; CYP2C19 AC50 (half-maximal activity concentration) (human CYP2C19 [4]): Inconclusive inhibitor; CYP2C9 AC50 (half-maximal activity concentration) (human CYP2C9 [6]): Inconclusive inhibitor |
| CN(C/C=C/c1ccccc1)Cc1cccc2ccccc12 [Naftifine hydrochloride] | 12.4 | 5.52 | 12.5 | 1.06 | 12.5 | – |
| OC1(c2ccc(Cl)c(C(F)(F)F)c2)CCN(CCCC(c2ccc(F)cc2)c2ccc(F)cc2)CC1 [Penfluridol] | – | – | – | – | – | AC50 (CYP3A4): 2.39 ± 0.41 µM; AC50 (human CYP2C19 [1]): 16.6 ± 4.88 µM; AC50 (human CYP2C9 [2]): 10.3 ± 1.85 µM; AC50 (human CYP2D6): 5.85 ± 1.65 µM; AC50 (human CYP1A2 [3]): 29.9 ± 4.12 µM |
| CN1CCC(=C2c3ccccc3Sc3ccccc32)CC1 [Pimethixene maleate] | 16.1 | 21.7 | – | 3.22 | – | CYP1A2 AC50 (half-maximal activity concentration) (human CYP1A2 [5]): Inactive; CYP2C9 AC50 (half-maximal activity concentration) (human CYP2C9 [6]): Inactive |
| CCCSP(=O)(OCC)Oc1ccc(Br)cc1Cl (centres unmarked) [Profenofos] | 3.25 | 4.22 | 9.76 | 13.8 | 4.52 | – |
| Oc1c(Cl)c(Cl)c(Cl)c(Cl)c1Cl [Sodium pentachlorophenate] | 71 | – | – | 2.15 | 73.9 | CYP2C19 AC50 (half-maximal activity concentration) (human CYP2C19 [4]): Inactive |
| c1ccc(P(c2ccccc2)c2ccccc2)cc1 [Triphenylphosphine] | 36.2 | 8.69 | 7.13 | 35.7 | – | CYP1A2 AC50 (half-maximal activity concentration) (human CYP1A2 [5]): Inactive |
